Here are results for two molecules from ChEMBL document CHEMBL4507320, “Data for DCP probe NVS-MALT1” (2021).

The source made the active and inactive calls. The rule behind the calls is not given here.

The target in experiment [1] is Sigma non-opioid intracellular receptor 1 (Homo sapiens, UniProt Q99720). The experiment is described as follows: GPCRScan assay: inhibition of Sigma 1. On the set-up: radioligand conc. used [nm] 4.0 – 5.0, parental cells HEKT.
For experiment [2], the target named is Sigma intracellular receptor 2 (Homo sapiens, UniProt Q5BJF2). The experiment is described as follows: GPCRScan assay: inhibition of Sigma 2. On the set-up: radioligand conc. used [nm] 5.0, parental cells HEKT.
Chain of Sigma intracellular receptor 2 (Q5BJF2 whole entry): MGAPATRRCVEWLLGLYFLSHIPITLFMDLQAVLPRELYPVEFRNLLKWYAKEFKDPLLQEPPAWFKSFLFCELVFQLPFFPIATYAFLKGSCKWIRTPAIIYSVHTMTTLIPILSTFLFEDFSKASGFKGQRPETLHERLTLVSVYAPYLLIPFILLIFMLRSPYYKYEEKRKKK
Experiment [3] addresses Muscarinic acetylcholine receptor M1 (Homo sapiens) (UniProt P11229). Particulars: Compound concentration 10.0 uM.
In experiment [4] the target is 5-hydroxytryptamine receptor 7 (Homo sapiens, UniProt P34969). The experiment is described as follows: GPCRScan assay: inhibition of 5-HT7A. Further details: radioligand conc. used [nm] 5.0 – 6.0, parental cells Stable HEK.
Experiment [5] has as its target Neutrophil elastase (Homo sapiens) (UniProt P08246). Put plainly: Neutrophil elastase 2 (h) Protease assay. The conditions noted are these: Compound concentration 10.0 uM.
For experiment [6], the target named is T1, Mucosa-associated lymphoid tissue lymphoma translocation protein 1 (Homo sapiens, UniProt Q9UDY8).
T1 sequence (Q9UDY8 whole entry): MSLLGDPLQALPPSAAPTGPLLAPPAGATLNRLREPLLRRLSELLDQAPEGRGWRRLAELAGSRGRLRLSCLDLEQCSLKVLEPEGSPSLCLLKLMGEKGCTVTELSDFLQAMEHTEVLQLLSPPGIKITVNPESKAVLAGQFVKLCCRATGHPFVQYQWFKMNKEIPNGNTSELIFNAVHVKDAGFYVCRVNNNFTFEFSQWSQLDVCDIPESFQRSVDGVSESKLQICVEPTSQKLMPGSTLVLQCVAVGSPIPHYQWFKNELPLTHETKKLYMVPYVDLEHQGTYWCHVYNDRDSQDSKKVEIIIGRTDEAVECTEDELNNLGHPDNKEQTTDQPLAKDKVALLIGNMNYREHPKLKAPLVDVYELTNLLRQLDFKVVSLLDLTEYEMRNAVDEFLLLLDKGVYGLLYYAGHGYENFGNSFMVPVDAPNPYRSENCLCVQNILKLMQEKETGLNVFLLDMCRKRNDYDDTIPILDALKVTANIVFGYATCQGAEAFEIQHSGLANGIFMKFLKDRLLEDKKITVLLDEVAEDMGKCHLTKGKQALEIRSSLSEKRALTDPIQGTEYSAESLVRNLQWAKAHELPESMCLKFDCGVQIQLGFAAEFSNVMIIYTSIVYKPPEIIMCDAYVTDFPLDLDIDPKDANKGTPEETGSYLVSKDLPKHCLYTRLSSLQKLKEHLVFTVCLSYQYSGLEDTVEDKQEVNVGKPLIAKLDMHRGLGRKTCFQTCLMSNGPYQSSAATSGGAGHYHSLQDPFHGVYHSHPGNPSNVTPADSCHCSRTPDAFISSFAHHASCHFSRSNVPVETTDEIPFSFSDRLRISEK
The experiment is described as follows: IL-2 – PMA + anti-CD28 + 50% Human whole blood. Format: tissue-based.

Experiment [7] deals with T1, Mucosa-associated lymphoid tissue lymphoma translocation protein 1. The experiment is described as follows: Human biochemical (TR-FRET) assay (low salt). For orientation: In TR-FRET formats the signal depends on donor and acceptor labels being close together.
In experiment [8] the target is Cathepsin B (Homo sapiens) (UniProt P07858). Put plainly: Cathepsin B (h) Protease assay. The conditions noted are these: Compound concentration 10.0 uM.
Experiment [9] addresses Histamine H3 receptor (Homo sapiens) (UniProt Q9Y5N1). Particulars: Compound concentration 10.0 uM.
In experiment [10] the target is Beta-2 adrenergic receptor (Homo sapiens) (UniProt P07550). The conditions noted are these: Compound concentration 10.0 uM.
Chain of Beta-2 adrenergic receptor (Homo sapiens) (P07550 whole entry, looked up): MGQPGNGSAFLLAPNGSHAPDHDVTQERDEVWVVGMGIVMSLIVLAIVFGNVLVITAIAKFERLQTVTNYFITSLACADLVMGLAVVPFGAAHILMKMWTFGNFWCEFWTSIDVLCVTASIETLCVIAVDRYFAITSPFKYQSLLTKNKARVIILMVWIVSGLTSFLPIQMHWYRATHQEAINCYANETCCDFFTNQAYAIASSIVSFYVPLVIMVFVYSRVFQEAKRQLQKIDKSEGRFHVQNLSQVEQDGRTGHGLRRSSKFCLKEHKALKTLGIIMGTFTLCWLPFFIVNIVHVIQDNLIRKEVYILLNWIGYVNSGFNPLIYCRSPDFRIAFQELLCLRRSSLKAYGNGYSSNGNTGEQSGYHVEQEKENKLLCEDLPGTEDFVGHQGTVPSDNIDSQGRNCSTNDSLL
Experiment [11] addresses Caspase-3 (Homo sapiens) (UniProt P42574). The experiment is described as follows: Caspase 3 (h) Protease assay. Particulars: Compound concentration 10.0 uM.
Experiment [12] deals with Cathepsin K (Homo sapiens) (UniProt P43235). Put plainly: Cathepsin K (h) Protease assay. The conditions noted are these: Compound concentration 10.0 uM.
Chain of Cathepsin K (Homo sapiens) (P43235 whole entry): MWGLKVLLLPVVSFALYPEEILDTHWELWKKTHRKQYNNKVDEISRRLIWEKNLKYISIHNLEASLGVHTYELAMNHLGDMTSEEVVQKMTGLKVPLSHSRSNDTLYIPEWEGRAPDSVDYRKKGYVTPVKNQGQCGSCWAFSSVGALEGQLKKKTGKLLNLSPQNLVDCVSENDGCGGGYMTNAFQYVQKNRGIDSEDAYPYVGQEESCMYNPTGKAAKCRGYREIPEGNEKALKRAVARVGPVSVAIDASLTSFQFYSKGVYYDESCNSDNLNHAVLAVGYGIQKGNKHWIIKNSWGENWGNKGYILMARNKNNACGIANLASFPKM
Experiment [13] deals with Neutrophil collagenase (Homo sapiens) (UniProt P22894). The experiment is described as follows: MMP-8 (h) Protease assay. Particulars: Compound concentration 10.0 uM.
Chain of Neutrophil collagenase (Homo sapiens) (P22894 101-467 limits assumed): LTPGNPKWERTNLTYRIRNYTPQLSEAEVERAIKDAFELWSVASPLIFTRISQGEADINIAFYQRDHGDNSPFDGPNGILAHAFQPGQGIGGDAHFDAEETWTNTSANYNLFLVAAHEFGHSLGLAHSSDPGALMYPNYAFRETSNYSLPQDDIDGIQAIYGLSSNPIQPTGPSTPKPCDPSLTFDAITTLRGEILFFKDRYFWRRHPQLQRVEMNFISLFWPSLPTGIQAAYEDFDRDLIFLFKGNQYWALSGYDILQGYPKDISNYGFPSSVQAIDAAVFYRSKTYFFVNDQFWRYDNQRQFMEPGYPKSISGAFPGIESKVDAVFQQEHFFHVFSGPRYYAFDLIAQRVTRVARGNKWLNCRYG
The target in experiment [14] is T1, Mucosa-associated lymphoid tissue lymphoma translocation protein 1. Put plainly: IL-2 – PMA + anti-CD28 + 50% Rat whole blood. Format: tissue-based. Particulars: target entry is the homologue from another species.
Experiment [15] addresses Cathepsin D (Homo sapiens) (UniProt P07339). The experiment is described as follows: Cathepsin D (h) Protease assay. The conditions noted are these: Compound concentration 10.0 uM.
In experiment [16] the target is Trypsin (Homo sapiens) (UniProt P07477+P07478+P35030). Put plainly: Trypsin (h) Protease assay. Format: protein assay. Particulars: Compound concentration 10.0 uM.
The target of experiment [17] is Prothrombin (Homo sapiens) (UniProt P00734). Put plainly: Thrombin (h) Protease assay. The conditions noted are these: Compound concentration 10.0 uM.
In experiment [18] the target is Receptor-type tyrosine-protein kinase FLT3 (Homo sapiens, UniProt P36888). The experiment is described as follows: Kinase panel. Further details: compound concentration 10 uM.
Chain of Receptor-type tyrosine-protein kinase FLT3 (P36888 whole entry): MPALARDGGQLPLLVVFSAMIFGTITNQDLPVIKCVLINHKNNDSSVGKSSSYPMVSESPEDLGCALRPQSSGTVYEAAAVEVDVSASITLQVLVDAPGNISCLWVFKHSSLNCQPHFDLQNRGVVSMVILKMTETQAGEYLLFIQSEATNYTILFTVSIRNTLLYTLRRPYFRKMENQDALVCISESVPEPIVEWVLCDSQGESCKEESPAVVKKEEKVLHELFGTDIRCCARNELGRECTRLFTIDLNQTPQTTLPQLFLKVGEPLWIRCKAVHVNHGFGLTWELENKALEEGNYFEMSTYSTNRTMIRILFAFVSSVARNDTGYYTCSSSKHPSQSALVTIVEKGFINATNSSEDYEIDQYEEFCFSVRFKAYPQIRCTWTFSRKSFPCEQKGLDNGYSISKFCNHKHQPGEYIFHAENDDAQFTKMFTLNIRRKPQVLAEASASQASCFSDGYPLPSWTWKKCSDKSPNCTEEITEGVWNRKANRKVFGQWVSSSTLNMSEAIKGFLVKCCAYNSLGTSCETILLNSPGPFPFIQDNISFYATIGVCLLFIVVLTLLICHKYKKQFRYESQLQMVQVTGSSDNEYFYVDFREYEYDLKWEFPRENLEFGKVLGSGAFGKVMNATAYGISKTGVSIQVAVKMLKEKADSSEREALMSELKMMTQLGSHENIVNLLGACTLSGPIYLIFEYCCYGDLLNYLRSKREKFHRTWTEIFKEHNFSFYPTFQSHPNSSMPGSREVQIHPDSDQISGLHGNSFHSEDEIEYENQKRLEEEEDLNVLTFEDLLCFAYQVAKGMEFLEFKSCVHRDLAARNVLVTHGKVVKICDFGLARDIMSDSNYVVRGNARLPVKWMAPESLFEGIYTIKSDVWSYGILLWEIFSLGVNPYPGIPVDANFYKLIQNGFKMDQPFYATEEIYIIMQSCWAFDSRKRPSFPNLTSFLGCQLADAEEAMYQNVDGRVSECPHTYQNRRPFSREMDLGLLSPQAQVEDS
Experiment [19] concerns the target Plasma kallikrein (Homo sapiens) (UniProt P03952). The experiment is described as follows: Plasma Kallikrein Protease assay. Particulars: Compound concentration 10.0 uM.
Experiment [20] concerns the target Coagulation factor VII (Homo sapiens) (UniProt P08709). The experiment is described as follows: Factor VIIa (h) Protease assay. The conditions noted are these: Compound concentration 10.0 uM.
The target in experiment [21] is Cathepsin S (Homo sapiens) (UniProt P25774). Put plainly: Cathepsin S (h) Protease assay. The conditions noted are these: Compound concentration 10.0 uM.
Chain of Cathepsin S (Homo sapiens) (P25774 115-331 limits assumed): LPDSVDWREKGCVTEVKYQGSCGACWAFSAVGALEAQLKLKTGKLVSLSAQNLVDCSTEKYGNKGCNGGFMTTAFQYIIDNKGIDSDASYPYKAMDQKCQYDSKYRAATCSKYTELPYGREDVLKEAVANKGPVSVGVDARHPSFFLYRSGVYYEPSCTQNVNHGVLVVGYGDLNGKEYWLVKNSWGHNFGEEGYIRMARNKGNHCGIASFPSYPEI
Experiment [22] has as its target Procathepsin L (Homo sapiens) (UniProt P07711). The experiment is described as follows: Cathepsin L (h) Protease assay. Particulars: Compound concentration 10.0 uM.
For experiment [23], the target named is Cathepsin G (Homo sapiens) (UniProt P08311). The experiment is described as follows: Cathepsin G (h) Protease assay. Particulars: Compound concentration 10.0 uM.
Chain of Cathepsin G (Homo sapiens) (P08311 whole entry): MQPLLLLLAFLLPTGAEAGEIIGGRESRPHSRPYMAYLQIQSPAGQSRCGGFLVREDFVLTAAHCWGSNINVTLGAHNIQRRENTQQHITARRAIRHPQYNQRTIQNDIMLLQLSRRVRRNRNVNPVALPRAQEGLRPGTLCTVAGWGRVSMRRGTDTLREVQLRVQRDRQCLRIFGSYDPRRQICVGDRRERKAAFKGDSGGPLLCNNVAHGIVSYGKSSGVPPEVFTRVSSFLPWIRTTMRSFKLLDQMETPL

Chain of Caspase-3 (Homo sapiens) (P42574 29-175 limits assumed): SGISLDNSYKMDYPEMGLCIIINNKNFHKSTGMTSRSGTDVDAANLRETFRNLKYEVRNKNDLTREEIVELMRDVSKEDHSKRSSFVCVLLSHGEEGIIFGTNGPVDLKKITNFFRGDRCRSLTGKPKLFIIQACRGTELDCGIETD
Chain of Caspase-3 (Homo sapiens) (P42574 176-277 limits assumed): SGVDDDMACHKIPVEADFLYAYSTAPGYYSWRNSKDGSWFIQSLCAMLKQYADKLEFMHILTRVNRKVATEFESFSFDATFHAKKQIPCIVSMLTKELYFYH
Chain of Muscarinic acetylcholine receptor M1 (Homo sapiens) (P11229 whole entry): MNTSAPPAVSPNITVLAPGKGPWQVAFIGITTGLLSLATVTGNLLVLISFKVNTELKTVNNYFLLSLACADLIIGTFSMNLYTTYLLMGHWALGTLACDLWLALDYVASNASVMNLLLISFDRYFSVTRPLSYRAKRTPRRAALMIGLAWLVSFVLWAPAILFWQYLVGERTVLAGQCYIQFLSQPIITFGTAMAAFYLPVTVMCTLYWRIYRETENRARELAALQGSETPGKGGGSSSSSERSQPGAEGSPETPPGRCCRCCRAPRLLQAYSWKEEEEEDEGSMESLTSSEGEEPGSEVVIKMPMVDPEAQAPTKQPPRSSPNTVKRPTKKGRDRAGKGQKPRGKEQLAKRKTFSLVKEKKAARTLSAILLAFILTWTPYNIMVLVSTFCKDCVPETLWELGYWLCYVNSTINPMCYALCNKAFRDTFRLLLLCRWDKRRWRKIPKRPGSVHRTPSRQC
Chain of Sigma non-opioid intracellular receptor 1 (Q99720 whole entry): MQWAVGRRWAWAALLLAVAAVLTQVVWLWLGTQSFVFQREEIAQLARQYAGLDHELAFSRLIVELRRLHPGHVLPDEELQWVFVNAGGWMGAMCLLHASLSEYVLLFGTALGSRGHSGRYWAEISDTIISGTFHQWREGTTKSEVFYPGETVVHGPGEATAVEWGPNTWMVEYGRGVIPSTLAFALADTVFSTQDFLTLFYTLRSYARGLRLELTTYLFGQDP
Chain of Cathepsin D (Homo sapiens) (P07339 65-162 limits assumed): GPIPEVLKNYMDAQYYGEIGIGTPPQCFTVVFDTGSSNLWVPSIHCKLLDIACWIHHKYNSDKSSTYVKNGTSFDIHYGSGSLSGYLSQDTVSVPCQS
Chain of Cathepsin D (Homo sapiens) (P07339 169-412 limits assumed): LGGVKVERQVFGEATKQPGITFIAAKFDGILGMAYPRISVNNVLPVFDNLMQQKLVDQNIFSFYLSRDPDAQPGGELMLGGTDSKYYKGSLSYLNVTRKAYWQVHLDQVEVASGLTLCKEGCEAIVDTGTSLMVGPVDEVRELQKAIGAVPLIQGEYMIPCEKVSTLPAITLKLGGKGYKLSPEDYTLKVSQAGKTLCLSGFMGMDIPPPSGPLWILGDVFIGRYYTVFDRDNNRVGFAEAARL
Chain of Neutrophil elastase (Homo sapiens) (P08246 whole entry): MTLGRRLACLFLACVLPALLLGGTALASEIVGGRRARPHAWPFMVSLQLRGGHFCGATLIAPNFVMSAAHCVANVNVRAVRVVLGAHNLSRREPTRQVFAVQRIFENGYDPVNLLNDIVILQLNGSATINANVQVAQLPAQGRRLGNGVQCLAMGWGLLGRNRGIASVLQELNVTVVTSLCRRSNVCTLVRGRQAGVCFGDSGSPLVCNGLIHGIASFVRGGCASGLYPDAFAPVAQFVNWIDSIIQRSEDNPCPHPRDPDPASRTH
Chain of Coagulation factor VII (Homo sapiens) (P08709 61-212 limits assumed): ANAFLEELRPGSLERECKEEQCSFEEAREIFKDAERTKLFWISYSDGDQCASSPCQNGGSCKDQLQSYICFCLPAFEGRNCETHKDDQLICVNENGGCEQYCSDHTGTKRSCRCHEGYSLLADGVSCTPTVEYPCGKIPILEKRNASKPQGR
Chain of Coagulation factor VII (Homo sapiens) (P08709 213-466 limits assumed): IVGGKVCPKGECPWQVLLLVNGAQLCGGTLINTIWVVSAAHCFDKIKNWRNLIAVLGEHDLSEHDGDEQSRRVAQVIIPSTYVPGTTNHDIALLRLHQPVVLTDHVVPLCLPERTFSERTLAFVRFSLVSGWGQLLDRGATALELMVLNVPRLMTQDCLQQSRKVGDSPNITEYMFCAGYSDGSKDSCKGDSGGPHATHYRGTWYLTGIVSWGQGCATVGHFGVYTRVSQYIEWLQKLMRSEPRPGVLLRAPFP

Broadly, the Ki is the dissociation constant of the complex between target and ligand, obtained from inhibition or displacement. The inhibition is the drop in the measured response relative to a control, in per cent. With `CO[C@@H](C)c1c(Nc2ccc([C@@H](N(C)C(=O)C3CCS(=O)(=O)CC3)C(F)(F)F)cc2)cnc2cc(Cl)nn12` [NVS-MALT1-C], the Ki in experiment [1] amounted to 1590 nM; in experiment [2], 890 nM; in [4], 10000 nM. Besides, in [3], the inhibition was -2.39%.

The term IC50 denotes the concentration needed to halve the response being measured. For `CO[C@@H](C)c1c(Nc2ccc([C@H](N(C)C(=O)C3CCS(=O)(=O)CC3)C(F)(F)F)cc2)cnc2cc(Cl)nn12` [NVS-MALT1], the inhibition in [5] is -1%; in experiment [8] it was -4%; in [9], -5.74%; in [10] it was 26.7%; in experiment [11], -1%; in [12] it was 2%. Besides, the inhibition in experiment [13] is 0%; in experiment [15], 0%; in [16], 0.8%; in experiment [17], 0%; in experiment [19] it was 5%; in [20], -1%. Also, the inhibition in experiment [21] was 7%; in [22] it was -3%; in experiment [23], 7%. For the same molecule, the IC50 in experiment [6] was 200 nM (active); in [7] it was 18 nM (active); in [14], 130 nM (active); in experiment [18], 3500 nM (active).
